Legend:
[1] = target: T1, hSGLT2 (Homo sapiens, UniProt P31639); experiment: SGLT2 inhibition assay for validation of screening hits and similar compounds (1‐NBD‐glucose uptake, CHO‐hSGLT2 cells); format: cell-based; conditions: 1‐NBD‐glucose uptake, CHO‐hSGLT2; mean of n biological replicates, or individual measurements where n=2; read-out: SGLT2‐IC50 Mean
T1 sequence (P31639 1-672): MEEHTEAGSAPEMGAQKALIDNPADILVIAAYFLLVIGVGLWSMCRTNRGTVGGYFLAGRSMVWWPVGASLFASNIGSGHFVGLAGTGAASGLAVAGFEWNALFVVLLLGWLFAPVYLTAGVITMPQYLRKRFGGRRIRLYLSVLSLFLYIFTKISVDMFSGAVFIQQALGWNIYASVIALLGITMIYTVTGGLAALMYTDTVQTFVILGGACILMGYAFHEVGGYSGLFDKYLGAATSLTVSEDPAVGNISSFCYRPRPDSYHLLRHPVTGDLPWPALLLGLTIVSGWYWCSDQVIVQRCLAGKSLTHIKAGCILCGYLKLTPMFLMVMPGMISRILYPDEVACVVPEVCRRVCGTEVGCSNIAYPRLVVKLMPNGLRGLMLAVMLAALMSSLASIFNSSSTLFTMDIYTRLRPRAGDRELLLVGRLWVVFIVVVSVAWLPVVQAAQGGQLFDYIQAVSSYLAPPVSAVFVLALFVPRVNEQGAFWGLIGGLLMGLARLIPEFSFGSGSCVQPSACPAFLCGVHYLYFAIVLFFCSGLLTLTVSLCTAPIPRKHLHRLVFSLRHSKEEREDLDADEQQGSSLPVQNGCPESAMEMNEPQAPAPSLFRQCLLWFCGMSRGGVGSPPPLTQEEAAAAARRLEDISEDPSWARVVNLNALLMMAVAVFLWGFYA

[2] = target: T2, SGLT1 (Homo sapiens, UniProt P13866); experiment: SGLT1 inhibition assay for validation of screening hits and similar compounds (1‐NBD‐glucose uptake, CHO‐hSGLT1 cells); format: cell-based
T2 sequence (P13866 1-664): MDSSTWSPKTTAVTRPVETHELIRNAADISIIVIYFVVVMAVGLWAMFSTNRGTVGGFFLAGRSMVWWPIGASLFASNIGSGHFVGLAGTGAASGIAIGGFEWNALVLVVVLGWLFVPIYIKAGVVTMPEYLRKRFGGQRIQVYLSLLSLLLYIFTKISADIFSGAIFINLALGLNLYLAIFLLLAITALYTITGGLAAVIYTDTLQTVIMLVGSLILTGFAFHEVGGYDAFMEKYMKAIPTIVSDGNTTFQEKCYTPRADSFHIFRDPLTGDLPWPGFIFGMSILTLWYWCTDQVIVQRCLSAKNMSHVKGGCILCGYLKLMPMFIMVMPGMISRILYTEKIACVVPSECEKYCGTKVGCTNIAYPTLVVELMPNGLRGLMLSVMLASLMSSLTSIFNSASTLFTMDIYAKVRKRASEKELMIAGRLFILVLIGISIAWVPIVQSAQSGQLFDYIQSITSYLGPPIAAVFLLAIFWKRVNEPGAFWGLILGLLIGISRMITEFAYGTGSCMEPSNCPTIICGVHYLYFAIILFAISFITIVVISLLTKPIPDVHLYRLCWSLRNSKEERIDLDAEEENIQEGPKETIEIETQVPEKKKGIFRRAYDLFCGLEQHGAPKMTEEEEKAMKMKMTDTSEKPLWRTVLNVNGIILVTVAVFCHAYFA

[3] = target: T2, SGLT1; experiment: Cellular uptake and transcellular transport of 14C‐α‐methylglucose by Caco‐2 cell monolayers; format: cell-based; set-up: Caco‐2 cells expressing endogenous SGLT1; host or cells: Caco-2; conditions: 90 minutes
Method: Caco‐2 cells (passage numbers 7 and 13) were seeded (29,700 cells) onto polycarbonate Transwell® inserts (6.5 mm diameter and 3.0 μm pores) and cultured for 21‐24 days to obtain differentiated polarized monolayers. Apical and basal medium was refreshed twice a week and the final medium refresh was done the day before the uptake and transport experiment. TransEpithelial Electrical Resistance (TEER) was measured with an EVOM^2 epithelial voltmeter (World Precision Instruments, Sarasota, USA) and inserts were used if TEER > 3000 Ω/cm^2. First, cells were washed twice apically and basally with D‐glucose free DMEM. Then, 100 μL (+)‐pteryxin dilutions (50 μmol/L and 500 μmol/L), P p.‐extract dilutions (1/200 and 1/2000), or 0.5% (v/v) DMSO vehicle control were applied apical in D‐glucose free DMEM with 0.3% (w/v) BSA and 40 nCi/mL ^14C‐α‐methylglucose. The basal acceptor wells (24‐well) contained 350 μL D‐glucose free DMEM with 0.3% (w/v) BSA. Then, cells were incubated in a humidified incubator at 37°C with 5% CO2 for 90 minutes. Inserts were transferred to a clean 24‐well plate and washed once with DMEM (with D‐glucose) and once with HBSS, with 1 mL at the basal and 100 μL at the apical side. Cells were lysed with 100 μL of 0.2 mol/L NaOH for 30 minutes at 37°C and lysates were analyzed by liquid scintillation counting on a Tri‐Carb 2910 TR (Perkin Elmer, Groningen, The Netherlands) to determine cellular ^14C‐α‐methylglucose uptake. Basal media were analyzed accordingly to determine transcellular ^14C‐α‐methylglucose transport. Mean ± SD ^14C‐α‐methylglucose uptake and transport were calculated from two biological replicates, each consisting of four technical replicates.

[4] = target: T2, SGLT1; experiment: cell-based; set-up: host or cells: CHO-K1; conditions: CHO, read-out: % of control remaining
[5] = test system: CHO‐hSGLT1/2 cells; experiment: Cytotoxicity assay (ToxiLight, adenylate kinase leakage into CHO‐SGLT1/2 inhibition assay media); set-up: CYTOTOXICITY / CY[…], mean / CYTOTOXICITY (% of vehicle control) Mean / CYTOTOXICITY, mean / CY[…] (% of vehicle control) Mean: dose or concentration left out as unconfirmed; conditions: mean;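 also: bioluminescent read-out of adenylate kinase released from lysed cells into the medium, given relative to DMSO vehicle control defined as 0%, higher meaning more cytolysis; percent of DMSO vehicle control bioluminescence with vehicle set at 0%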
[6] = target: T1, hSGLT2; experiment: cell-based; set-up: host or cells: CHO-K1; conditions: CHO, read-out: % of control remaining

Row | Structure (SMILES) | IC50 [1] [µM] | IC50 ([2]; 1‐NBD‐glucose uptake, CHO‐hSGLT1, mean of n biological replicates, or individual measurements where n=2, read-out: SGLT1‐IC50 Mean) [µM] | inhibition at 50 µM ([2]; mean inhibition with 50 μmol/L inhibitor, read-out: SGLT1 inhibition) [%] | Inhibition of 14C‐α‐methylglucose cellular uptake ([3]; Caco‐2, 50 μmol/L) [%] | Inhibition of transcellular transport of 14C‐α‐methylglucose ([3]; Caco‐2, 50 μmol/L) [%] | Inhibition of 14C‐α‐methylglucose cellular uptake ([3]; Caco‐2, 500 μmol/L) [%] | Inhibition of transcellular transport of 14C‐α‐methylglucose ([3]; Caco‐2, 500 μmol/L) [%] | remaining activity at 5 µM [4] [%] | remaining activity at 50 µM [4] [%] | CYTOTOXICITY [5] | remaining activity at 5 µM [6] [%] | remaining activity at 50 µM [6] [%]
1 | CC=C(C)C(=O)OC1c2c(ccc3ccc(=O)oc23)OC(C)(C)C1OC(C)=O (stereo not drawn) [(+)‐pteryxin] | 9 | 12 | 89 | 18 | 37 | 91 | 89 | – | – | – | – | –
2 | CC(=O)OC[C@H]1O[C@@H](O[C@@H]2[C@@H](O)[C@H](O[C@@H]3[C@H](O)C(C)(C)C[C@H]4C5=CC[C@@H]6[C@@]7(C)CC[C@H](O[C@@H]8O[C@H](C(=O)O)[C@@H](O)[C@H](O)[C@H]8O[C@@H]8O[C@H](CO)[C@H](O)[C@H](O)[C@H]8O[C@@H]8O[C@H](CO)[C@@H](O)[C@H](O)[C@H]8O)[C@](C)(CO)[C@@H]7CC[C@@]6(C)[C@]5(C)CC[C@@]34C)OC[C@@H]2O)[C@H](OC(C)=O)[C@@H](OC(C)=O)[C@@H]1OC(C)=O [Soyasaponin Ab] | – | – | – | – | – | – | – | 104 | 104 | 5 | 106 | 96.8
